For test [1], the target named is T1, Farnesyl pyrophosphate synthase (Homo sapiens) (UniProt P14324).
T1 sequence (whole entry): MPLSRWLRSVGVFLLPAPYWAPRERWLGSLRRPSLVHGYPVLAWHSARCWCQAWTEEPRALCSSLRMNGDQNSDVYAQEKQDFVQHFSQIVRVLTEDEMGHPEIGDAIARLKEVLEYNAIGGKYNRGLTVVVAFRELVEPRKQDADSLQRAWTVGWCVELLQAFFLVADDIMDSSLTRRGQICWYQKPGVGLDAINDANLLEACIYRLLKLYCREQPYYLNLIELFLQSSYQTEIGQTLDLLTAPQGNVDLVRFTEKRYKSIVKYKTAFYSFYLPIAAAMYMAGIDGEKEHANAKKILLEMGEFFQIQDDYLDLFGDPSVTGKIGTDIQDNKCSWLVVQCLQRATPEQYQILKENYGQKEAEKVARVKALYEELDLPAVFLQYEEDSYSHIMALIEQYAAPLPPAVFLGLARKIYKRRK
Description: Inhibition of N-terminal His-tagged human FPPS expressed in Escherichia coli at 1 uM.

In test [2] the target is T2, Farnesyl pyrophosphate synthase (Homo sapiens, UniProt P14324).
T2 sequence (P14324 whole entry): T1 sequence (whole entry)
The test is described as follows: Inhibition of N-terminal His-tagged human FPPS expressed in Escherichia coli.

Test [3] concerns the target T1, Farnesyl pyrophosphate synthase (Homo sapiens). The test is described as follows: Inhibition of N-terminal His-tagged human FPPS expressed in Escherichia coli at 10 uM.

In test [1], `O=P(O)(O)C(F)(Cc1cncc(-c2cn[nH]c2)c1)P(=O)(O)O` registered an inhibition greater than 50%. In test [2], 650 nM corresponded to half-maximal inhibition (IC50).

On to `Cc1noc(C)c1-c1cncc(CC(F)(P(=O)(O)O)P(=O)(O)O)c1`, for which, in test [3], the inhibition came to 86%.

Turning to `O=P(O)(O)C(F)(Cc1cncc(-c2ccc3[nH]ncc3c2)c1)P(=O)(O)O`, the inhibition in test [1] is greater than 50%. Moreover, in test [2], the half-inhibitory concentration (IC50) was 700 nM.

On to `O=P(O)(O)C(F)(Cc1cncc(-c2cccc3[nH]ncc23)c1)P(=O)(O)O`, for which the inhibition in test [3] stood at 81%.

(Values after ChEMBL document CHEMBL1255548, “Novel bisphosphonate inhibitors of the human farnesyl pyrophosphate synthase” (Bioorg Med Chem Lett, 2010).)
